Results from patent US20240108634A1, “COMPOSITIONS AND METHODS FOR INHIBITING YAP” (The United States Government as represented by the …, priority 2021, published 2024).

Legend:
[1] = target: T1, YAP1 (residues 50-171) / TEAD1 (residues 194-411) association (Homo sapiens, UniProt P46937); assay: In vitro GST pull-down of His-tagged YAP1 with GST-TEAD1; assay type: binding; conditions: concentration-dependent
T1 construct: His; made in house
Protocol: FIGS. 1A-G show the identification of a YAP1-TEAD1 binding interface inhibitor. […] The Gal4 DBD was fused to residues 50-171 of human YAP1 and the Gal4 AD was fused to residues 194-411 of human TEAD1. These fusions were expressed in yeast containing reporters harboring Gal4 upstream activating sequences (UAS). […] Yeast expressing either p53-DBD and SV40 large T antigen-AD fusions or YAP1-DBD and TEAD1-AD fusions were plated on selective media. Compounds were pinned onto the plate surfaces by robotic transfer and subsequently examined for halo formation (indicated by red circles). […] Pull-down products were analyzed by SDS-PAGE and silver staining. […] Raw binding sensorgrams obtained at each concentration were fitted to a 1:1 binding model and Kon, Koff and KD were calculated by simultaneous non-linear regression analyses.
Results. […] To examine the mechanism by which NSC682769 inhibits YAP, the ability of full-length human YAP1 to bind to NSC682769 cross-linked affinity beads prepared using a photo-cross-linking procedure (Holmes B, et al. (2016) J Biol Chem 291: 14146-14159) was determined. Recombinant YAP was incubated with control, IRES-J007 (negative control), or NSC682769-coupled beads and binding analyzed by immunoblotting for YAP (FIG. 1F). […]

LN229 xenografts = assay: Subcutaneous LN229 xenografts in SCID mice; assay type: in vivo
Description: Protein levels were quantified by Western analyses (inset; representative immunoblots of YAP and actin levels from tumors from the indicated tumor treatment groups), and normalized to actin levels of harvested tumors from mice with the corresponding treatments as indicated and described in Materials and Methods. […] Scale bar, 20 μm. […] Data are expressed as the number of positive apoptotic bodies (brown, indicated by arrows) divided by high power field (hpf; 10-12 hpf/tumor). Values are means+S.D., *, P<0.05. Scale bar, 20 μm.
Animal studies. Xenografts of LN229 cells were performed in 4-6-week-old female C.B.-17-scid (Taconic) mice as previously described (Holmes B, et al. (2016) J Biol Chem 291: 14146-14159). Tumors were harvested at autopsy for immunoblot analysis. Sections of paraffin-embedded tumors on slides were processed for immunohistochemistry as previously described (Benavides-Serrato A, et al. (2017) PLoS One 12: e0176599). For GEMM studies, double transgenic GFAP-EGFRvIII; GFAP-Cre/Rictor^loxP/loxP mice as previously described were used (Bashir T, et al. (2012) PLoS One 7: e47741). Determinations of blood plasma and brain concentrations of NSC682769 following IV administration were performed in C57/BL6 mice.
NSC682769 inhibits GBM tumor growth in xenografted mice. To examine the effects of NSC682769 in vivo, the ability of the compound to inhibit the growth of LN229 xenografted tumors implanted subcutaneously in SCID mice was tested. Following implantation, when tumors reached ˜200 mm^3, mice were randomized into treatment groups receiving vehicle, 5 mg/kg/d and 20 mg/kg/d of NSC682769. […] The relative expression level of YAP was reduced in harvested tumors from NSC682769 treated animals (5 mg/kg; 20 mg/kg) as compared to vehicle treated animals consistent with the observed effects of the inhibitor in vitro (FIG. 5D; see also FIG. 3). Expression of the YAP-dependent genes CTGF and Cyr61 was reduced in inhibitor treated groups relative to vehicle (FIG. 5E).

T1 sequence (P46937 50-171): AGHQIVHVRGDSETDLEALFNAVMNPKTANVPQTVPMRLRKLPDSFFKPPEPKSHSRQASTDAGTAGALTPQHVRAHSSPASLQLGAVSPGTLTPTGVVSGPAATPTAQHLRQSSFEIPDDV

For COc1ccc(-c2cc(-c3ccccc3)nc3c2CC(=O)Nc2ccccc2-3)cc1OC [NSC682769], the “Inhibition of His-tagged YAP1 and GST-TEAD1 association” value [1] was “marked inhibition”, the Tumor growth delay (LN229 xenografts; 5 mg/kg/d) was 11 days and the “Tumor growth inhibition at end of dosing period” value (LN229 xenografts; 5 mg/kg/d) was 66%. For the same compound, the “Relative expression level of YAP in harvested tumors” value (LN229 xenografts; 5 mg/kg, 20 mg/kg versus vehicle) was “reduced”, the Tumor growth delay (LN229 xenografts; 20 mg/kg/d) was 16 days and the “Tumor growth inhibition at end of dosing period” value (LN229 xenografts; 20 mg/kg/d) was 83%. The “Overall survival relative to vehicle” value (LN229 xenografts; 5 and 20 mg/kg/d) was “markedly extended”, the Harvested tumor weights (LN229 xenografts; both dosing regimens versus vehicle) was “significant reduction” and the “Apoptosis by TUNEL staining of tumors” value (LN229 xenografts; both dosing regimens, day 12) was “enhancement of apoptotic death”. For the same compound, the “Ki-67 staining of harvested tumors” value (LN229 xenografts; day 12 after start of treatment) was “reduction” and the “Expression of CTGF and Cyr61 in harvested xenografts” value (LN229 xenografts; treated groups versus vehicle) was “reduced”.
